Assays:
Test in all cases: relative viability (nuclei count vs DMSO), 5 days (fraction); higher = more cells survive
Bleomycin + Palbociclib = compound: CC1=C(N=C(N=C1N)[C@H](CC(=O)N)NC[C@@H](C(=O)N)N)C(=O)N[C@@H]([C@H](C2=CN=CN2)OC3C(C(C(C(O3)CO)O)O)OC4C(C(C(C(O4)CO)O)OC(=O)N)O)C(=O)N[C@H](C)[C@H]([C@H](C)C(=O)N[C@@H]([C@@H](C)O)C(=O)NCCC5=NC(=CS5)C6=NC(=CS6)C(=O)NCCC[S+](C)C)O [Bleomycin] + CC(=O)c1c(C)c2cnc(Nc3ccc(N4CCNCC4)cn3)nc2n(C2CCCC2)c1=O [Palbociclib] (partner 0.5 µM); settings: main component drawn
Procedure, shortened: (§1)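 Relative viability equals treated-well nuclei counts divided by vehicle-well nuclei counts. Counts came from 4× images of lung cancer cell lines grown in 1536-well plates for 5 days after pin-tool dosing on the day after seeding. Dosing used one drug alone or a fixed anchor-drug dose plus five library-drug doses (not always all listed) in √10 steps, and values are medians of duplicate plates.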

Bleomycin + Pemetrexed = compound: CC1=C(N=C(N=C1N)[C@H](CC(=O)N)NC[C@@H](C(=O)N)N)C(=O)N[C@@H]([C@H](C2=CN=CN2)OC3C(C(C(C(O3)CO)O)O)OC4C(C(C(C(O4)CO)O)OC(=O)N)O)C(=O)N[C@H](C)[C@H]([C@H](C)C(=O)N[C@@H]([C@@H](C)O)C(=O)NCCC5=NC(=CS5)C6=NC(=CS6)C(=O)NCCC[S+](C)C)O [Bleomycin] + Nc1nc2[nH]cc(CCc3ccc(C(=O)N[C@@H](CCC(=O)O)C(=O)O)cc3)c2c(=O)[nH]1 [Pemetrexed] (partner 0.2 µM); settings: main component drawn
Procedure, shortened: as §1

Etoposide + Alpelisib = compound: COc1cc([C@@H]2c3cc4c(cc3[C@@H](O[C@@H]3O[C@@H]5CO[C@@H](C)O[C@H]5[C@H](O)[C@H]3O)[C@H]3COC(=O)[C@H]23)OCO4)cc(OC)c1O [Etoposide] + Cc1nc(NC(=O)N2CCC[C@H]2C(N)=O)sc1-c1ccnc(C(C)(C)C(F)(F)F)c1 [Alpelisib] (partner 2 µM)
Procedure, shortened: as §1

Etoposide + Decitabine = compound: COc1cc([C@@H]2c3cc4c(cc3[C@@H](O[C@@H]3O[C@@H]5CO[C@@H](C)O[C@H]5[C@H](O)[C@H]3O)[C@H]3COC(=O)[C@H]23)OCO4)cc(OC)c1O [Etoposide] + Nc1ncn([C@H]2C[C@H](O)[C@@H](CO)O2)c(=O)n1 [Decitabine] (partner 2 µM)
Procedure, shortened: as §1

Cell Line	relative viability (Bleomycin + Palbociclib; first compound 0.01 µM)	relative viability (Bleomycin + Palbociclib; first compound 0.03162 µM)	relative viability (Bleomycin + Palbociclib; first compound 0.1 µM)	relative viability (Bleomycin + Palbociclib; first compound 0.3162 µM)	relative viability (Bleomycin + Palbociclib; first compound 1 µM)	relative viability (Bleomycin + Pemetrexed; first compound 0.01 µM)	relative viability (Bleomycin + Pemetrexed; first compound 0.03162 µM)	relative viability (Bleomycin + Pemetrexed; first compound 0.1 µM)	relative viability (Bleomycin + Pemetrexed; first compound 0.3162 µM)	relative viability (Bleomycin + Pemetrexed; first compound 1 µM)	relative viability (Etoposide + Alpelisib; first compound 0.01 µM)	relative viability (Etoposide + Alpelisib; first compound 0.03162 µM)	relative viability (Etoposide + Alpelisib; first compound 0.1 µM)	relative viability (Etoposide + Alpelisib; first compound 0.3162 µM)	relative viability (Etoposide + Alpelisib; first compound 1 µM)	relative viability (Etoposide + Decitabine; first compound 0.01 µM)	relative viability (Etoposide + Decitabine; first compound 0.03162 µM)	relative viability (Etoposide + Decitabine; first compound 0.1 µM)	relative viability (Etoposide + Decitabine; first compound 0.3162 µM)	relative viability (Etoposide + Decitabine; first compound 1 µM)
PC-14	0.193	0.174	0.127	0.0449	0.0437	0.113	0.118	0.103	0.0537	0.0242	0.927	1.08	1.1	0.835	0.808	0.242	0.248	0.258	0.182	0.103
NCI-H1755	0.433	0.435	0.457	0.408	0.428	0.529	0.442	0.426	0.381	0.415	0.919	0.907	0.888	0.871	0.639	0.795	0.731	0.712	0.622	0.553
HCC-78	0.522	0.533	0.412	0.4	0.463	0.895	0.969	0.88	0.832	0.826	0.316	0.354	0.212	0.213	0.161	0.669	0.697	0.429	0.317	0.265
IA-LM											0.773	0.815	0.477	0.645	0.552					
NCI-H441	0.182	0.203	0.185	0.153	0.17	0.248	0.251	0.267	0.217	0.244	0.473	0.722	0.362	0.16	0.174	0.273	0.239	0.241	0.213	0.169
NCI-H322M	0.472	0.562	0.484	0.428	0.491	0.635	0.606	0.723	0.573	0.575	0.712	0.786	0.663	0.658	0.472	0.71	0.696	0.584	0.623	0.563
NCI-H2228	0.719	0.683	0.465	0.411	0.226	0.317	0.291	0.263	0.199	0.185	0.864	1.01	0.713	0.442	0.224					
NCI-H596						0.474	0.46	0.465	0.305	0.332	0.383	0.491		0.457	0.425	0.826	1.05	1.09	1.01	0.857
ChaGo-K-1	0.847	0.831	0.862	0.512	0.386	0.267	0.251	0.245	0.261	0.24						0.448	0.546	0.397	0.291	0.229
NCI-H522	0.904	0.829	0.76	0.386	0.4	0.844	0.815	0.85	0.49	0.321						0.702	0.655	0.502	0.872	0.571
NCI-H1299											1.04	1.04	1.14	1.02	0.872					
NCI-H1650	0.215	0.222	0.153	0.176	0.191	0.358	0.214	0.189	0.15	0.128						0.346	0.314	0.355	0.195	0.182
NCI-H1648	0.217	0.32	0.27	0.27	0.245	0.669	0.614	0.508	0.483	0.469							0.513	0.454	0.466	0.341
NCI-H2342	0.553	0.546	0.519	0.488	0.433	0.837	0.759	0.685	0.539	0.62						0.599	0.677	0.477	0.373	0.368
SW 900	0.502	0.503	0.355	0.214	0.222	0.469	0.461	0.391	0.2	0.191						0.443	0.428	0.361	0.297	0.269
A549											0.737	0.793	0.375	0.224	0.0497	0.24	0.326	0.195	0.114	0.0774
NCI-H727	0.346	0.721	0.654	0.526	0.636						0.616	0.524	0.566	0.58	0.423	1.11	0.985	0.681	0.796	0.63
NCI-H1563						0.618	0.915	0.691	0.54	0.575	0.855	0.918	0.868	0.588	0.557					
ABC-1	0.467	0.822	0.789	0.512	0.433						1.03	1.1	1.02	0.577	0.243	1.08	0.939	0.62	0.619	0.52
